From patent publication US12667546B2, “Methods for manipulating cell state transitions in cancer” (AGENCY FOR SCIENCE, TECHNOLOGY AND RESEARCH, priority 2018, dated 2026)
Entries after “also recorded” stand apart in the source; their conditions may differ. Like-named read-outs stand apart in the source and are kept apart here.

Assays:
NAMEC8 [1] = test: Cell morphology of treated NAMEC8; assay type: cell-based, human; settings: bexarotene, TTNPB, SGC-CBP30, UNC0642, A-485 1 μM, LLY-283, GSK591 20 nM, C-IN-1 500 nM
Procedure: Human mammary epithelial cell lines (HMLE) were generated as described and immortalized using retroviral vectors to express the catalytic subunit of the human telomerase enzyme, hTERT and the SV-40 Large T antigen. NAMEC8 was generated as described. Briefly, HMLE cells were grown to 50% confluency, followed by differential trypsinization for 1 minute with 0.05% trypsin. Detached cells were carefully collected and re-plated at approximately 200 cells per well of a 24-well plate. Upon expansion, wells were screened for populations that were morphologically mesenchymal and can be stably propagated. Clonal and non-clonal NAMEC cell lines were generated. NAMEC8 is a non-clonal line derived from at least 200 mesenchymal cells. HMLE cells and NAMECs were maintained in MEGM (Lonza).

NAMEC8 [2] = test: Flow cytometry of CD44 and CD24, NAMEC8; assay type: cell-based, human
Procedure: (§1) Cells were harvested as per FACS and resuspended in 100 μl of solution containing CD24-PE and CD44-APC (BD-Biosciences) antibodies diluted in 2% FBS in PBS (1:40 dilution). Cells were stained for 45 min with vortexing every 10 min to ensure even staining. After antibody incubation, cells were washed once and resuspended in 300 μl 2% FBS in PBS. Cells were then filtered through a 40 μm strainer and analyzed on BD LSR Fortessa X-20 Cell Analyzer.

NAMEC8 [3] = test: Expression of EMT and lineage markers (qRT-PCR, immunoblot, immunofluorescence) in NAMEC8; assay type: cell-based, human; settings: for expression of EMT and basal/luminal markers: transcript and protein
Procedure: (§2) Cells were rinsed twice in ice-cold PBS. Total RNA was extracted using Trizol (Invitrogen) and column-purified with RNeasy kits (Qiagen). cDNA synthesis was performed with 500 ng of total RNA at 37° C. for 2 h using the SuperScript III First-Strand Synthesis System (Thermo Fisher Scientific), and subsequently diluted 5-fold. mRNA levels were measured with gene-specific primers listed below using the ABI Prism 7900HT Sequence Detection System 2.2 (Applied Biosystems). Results were normalized to GAPDH and analyzed using SDS 2.2 software.
(§3) Cells were harvested and scraped from culture dishes in ice-cold PBS. They were then centrifuged at 12000 rpm for 5 min at 4° C. The pellets were then snap frozen in liquid nitrogen or lysed in ice-cold RIPA lysis buffer (Thermo Scientific) and left on ice for 30 min. Subsequently, the lysates were centrifuged at 12000 rpm for 10 min at 4° C. The supernatants were then aspirated and placed in fresh tubes. Protein concentrations were determined using Coomaisse Blue. 50-80 μg total protein was mixed with NuPAGE™ LDS sample buffer and heated at 70° C. for 10 min. Samples were loaded into NuPAGE™ 4-12% Bis-Tris gels (precast polyacrylamide gel; Invitrogen™). Gel electrophoresis was done at 200V for 1.5 h and then blotted onto nitrocellulose membranes (Trans-Blot Turbo™ transfer pack; Bio-Rad). The membranes were blocked with 5% skimmed milk in Tris-buffered saline (TBS; 1st BASE) with 0.1% Tween-20 (Santa Cruz), and then incubated with primary antibodies overnight at 4° C. Thereafter, the membranes were incubated with a horseradish peroxidase (HRP)-conjugated secondary antibody at room temperature for one hour. Finally, the immunoreactive proteins were visualized by using an enhanced chemiluminescent (ECL) reagent (Thermo Scientific, 34075) with the Chemidoc™ Imager (Bio-Rad, 17001401).
Cell cultures were fixed in 4% paraformaldehyde and permeabilized with 0.25% Triton X-100, followed by blocking with 1% bovine serum albumin in PBST. Cells were incubated in specific primary antibodies, followed by the appropriate secondary antibodies conjugated with Alexa Fluor-488 or -594 (Molecular Probes). Cell nuclei were then stained with DAPI and then viewed and imaged with an Axio Observer D1 epifluorescence microscope with a built-in AxioCamMR3 camera (Zeiss), using the optimal filters and 100-200× magnifications.

NAMEC8-Ras = test: Tumor formation of pre-treated NAMEC8-Ras injected subcutaneously; assay type: in vivo, NSG mice; settings: pre-treated cells, 11 weeks
SUM159 [4] = test: Flow cytometry of CD44 and CD24, SUM159; assay type: cell-based, human
Procedure: as §1

SUM159 [5] = test: Mammosphere assay, SUM159; assay type: cell-based, human
Procedure: (§4) For mammosphere culture, cells were seeded onto 96-well ultralow-adherence plates at 700 cells/well in Mammocult medium (Stem Cell Technologies) supplemented with 4 μg/ml heparin, 0.5 μg/ml hydrocortisone and 1% methylcellulose. Spheres (>100 μm) were counted at 7-10 days later.

[6] = tested on: H3K14ac, H3K18ac and H3K27ac in NAMEC8; test: Immunoblot of histone acetylation marks; assay type: cell-based, human
Procedure: as §3

SUM159 [7] = test: Expression of EMT and lineage markers in SUM159; assay type: cell-based, human
Procedure: as §2
Cells were harvested and scraped from culture dishes in ice-cold PBS. They were then centrifuged at 12000 rpm for 5 min at 4° C. The pellets were then snap frozen in liquid nitrogen or lysed in ice-cold RIPA lysis buffer (Thermo Scientific) and left on ice for 30 min. Subsequently, the lysates were centrifuged at 12000 rpm for 10 min at 4° C. The supernatants were then aspirated and placed in fresh tubes. Protein concentrations were determined using Coomaisse Blue. 50-80 μg total protein was mixed with NuPAGE™ LDS sample buffer and heated at 70° C. for 10 min. Samples were loaded into NuPAGE™ 4-12% Bis-Tris gels (precast polyacrylamide gel; Invitrogen™). Gel electrophoresis was done at 200V for 1.5 h and then blotted onto nitrocellulose membranes (Trans-Blot Turbo™ transfer pack; Bio-Rad). […]

NAMEC8 [8] = test: Mammosphere assay, NAMEC8; assay type: cell-based, human; settings: NAMEC8, pre-treated cells
Procedure: as §4

A549 = test: TGFβ-induced EMT in lung cancer cell line; assay type: cell-based, human
Procedure: as §3

MCF7-Slug+Sox9 tumors = test: Orthotopic MCF7-Slug+Sox9 EMT-induced metastasis model; assay type: in vivo, NSG mice; settings: etomoxir 20 mg/kg per day i.p. plus doxycycline
Procedure: Orthotopic tumor transplantations of MCF7-Slug+Sox9 cells labeled with the tdTomato fluorescent protein were carried out as described previously. Briefly, 1×10^6 cells were resuspended in 30 μl of media containing 50% matrigel and injected into mammary fat pads of NSG mice. Mice were randomly divided into 3 groups (Control, DOX and Etomoxir+DOX). Mice were administered vehicle control (0.9% w/v NaCl) or etomoxir (20 mg/kg) via i.p. injections daily for 3 weeks. Doxycycline was then administered through drinking water for 2 weeks. Mice were sacrificed 10 weeks after doxycycline treatment was stopped and analyzed for lung metastases under a fluorescence microscope. The tumor sections were fixed overnight in 4% paraformaldehyde, immersed in 70% ethanol, and sent to the Advanced Molecular Pathlogy Lab, IMCB for paraffinization. For IF staining, slides were deparaffinized and rehydrated in PBS. The tissues were surrounded with a hydrophobic barrier using a barrier pen and blocked with the blocking buffer (1% bovine serum albumin; BSA, 1% horse serum and 0.2% Triton X-100 in PBS) for 1 hour. They were then washed with PBS and incubated in specific primary antibodies at 4° C. overnight. […] The fluorescence image analysis and the fluorescence overlay image were obtained with the Axio Vision Rel. […]

SUM159 [9] = test: Fatty acid β-oxidation assay (rate of FAO); assay type: cell-based, human; settings: etomoxir alone or together with bexarotene
Procedure: FAO rate was measured using the mitochondrial stress test on the XF96 analyzer (Seahorse Bioscience) according to manufacturer's instructions. Cells were seeded in 96well XF96 cell culture plates at a density of 9000 cells/well in complete media. Cells were then incubated with XF modified DMEM assay medium (Seahorse Bioscience) supplemented with 1 mM glutamine, 0.5 mM glucose, 1% FBS and 0.5 mM carnitine the next day for 18 h. On the day of the assay, cells were incubated with FAO assay medium (KHB: 111 mM NaCl, 4.7 mM KCl, 1.25 mM CaCl2), 2 mM MgSO4, 1.2 mM NaH2 PO4 supplemented with 2.5 mM glucose, 0.5 mM carnitine, 5 mM HEPES, adjusted to pH7.4) 45 min prior to the assay in a non-CO2 incubator. Seahorse XF Cell Mito Stress Test compounds (2 μM oligomycin, 2 μM FCCP, 2 μM rotenone). For inhibition of FAO, etomoxir (40 μM) was added 15 min prior to the assay. Just prior to starting the assay, XF Palmitate-BSA FAO substrate or BSA was added to the cells. Plate was then put into the XF96 analyzer and the XF Cell Mito Stress Test was run using the recommended protocol. Rate of FAO was calculated by the difference in maximal respiration when Palmitate-BSA FAO substrate was supplemented relative to BSA control.

HMLE-Twist ER = test: 4-OHT-induced EMT in HMLE-Twist ER cells; assay type: cell-based, human
Procedure: (§5) HMLE-Twist-ER cells were generated as described. For EMT-induction, 100 nM of 4-hydroxytamoxifen in ethanol was added to the culture medium every 48 h to induce Twist expression. Control cells were treated with ethanol. MCF7-Slug+Sox9 cells were generated as previously described. HMLE-Zeb1 cells were generated by infection with FUW-Zeb1 and rTTA. Doxycycline was added to the culture medium every 48 h to induce Zeb1 expression. To generate tumorigenic cells from NAMEC8, cells were infected with pWZL-Blast-Ras. MCF7, MCF7-Ras, SUM159 were maintained as previously described. All cell cultures were maintained at 37° C. with 5% CO2.
as §2
(§6) Cells were harvested and scraped from culture dishes in ice-cold PBS. They were then centrifuged at 12000 rpm for 5 min at 4° C. […] Protein concentrations were determined using Coomaisse Blue. […]

[10] = in vivo; cited from earlier work
MCF7-Slug+Sox9 = test: Doxycycline-induced EMT in MCF7-Slug+Sox9 cells; assay type: cell-based, human
Procedure: as §5, §2, §6

metastatic TNBC = settings: cited from earlier work

## CNC(=O)Nc1ccc2c(c1)CC[C@@]21OC(=O)N(CC(=O)N(Cc2ccc(F)cc2)[C@@H](C)C(F)(F)F)C1=O [A-485]
NAMEC8 [1]
  cell morphology: tight clusters of epithelial islands were observed; also recorded: Epithelial-like morphology was observed
NAMEC8 [2]
  CD44/CD24 surface expression: obvious increase in CD44 expression; also recorded: higher CD44 expression
NAMEC8 [3]
  expression of EMT and basal/luminal markers: upregulation of E-cadherin protein expression, with slight decrease in the mesenchymal markers
NAMEC8-Ras
  tumor formation / tumor size: Tumor formation was still observed

## COc1ccc(CCc2nc3cc(-c4c(C)noc4C)ccc3n2C[C@H](C)N2CCOCC2)cc1Cl [SGC-CBP30]
SUM159 [4]
  CD44/CD24 surface expression: slight decrease in CD44 expression, with a population of cells gaining the expression of CD24; also recorded: decreased CD44 expression and higher CD24 expression
NAMEC8 [1]
  cell morphology: obvious change in cell morphology from scattered, spindle- and fibroblastic-like cells, to tight clusters of epithelial islands; also recorded: resulted in epithelial-like morphology
NAMEC8 [2]
  CD44/CD24 surface expression: population of cells with lower CD44 expression was observed; also recorded: Population of cells with decreased CD44 expression was observed
NAMEC8 [3]
  expression of EMT and basal/luminal markers: significantly increased epithelial marker E-cadherin expression, as well as downregulated several mesenchymal markers, fibronectin, ZEB1 and SLUG; also recorded: most drastic change as compared to the other compounds
NAMEC8-Ras
  tumor formation / tumor size: significantly smaller tumors after 11 weeks; also recorded: significantly reduced tumor formation in mice
SUM159 [5]
  mammosphere formation: significant reduction in spheres formation and spheres size
[6]
  histone acetylation marks: all the acetylation marks were decreased but to a lesser extent compared to A-485 treatment
SUM159 [7]
  expression of EMT and lineage markers / epithelial features: increasing epithelial features and decreasing stemness in SUM159
NAMEC8 [8]
  mammosphere formation: significantly reduce the size and number of spheres formed

## CCOC(=O)[C@@]1(CCCCCCOc2ccc(Cl)cc2)CO1 [etomoxir]
A549
  TGFβ-induced EMT: blocking TGFβ-induced EMT
MCF7-Slug+Sox9 tumors
  EMT markers in primary tumors (E-cadherin, Vimentin): retention of the epithelial features
SUM159 [9]
  FAO activity: completely inhibited FAO activity
NAMEC8 [3]; drugs removed for at least seven days
  MET phenotype: induction and durability after drug withdrawal: unable to do so
HMLE-Twist ER
  4-OHT-induced EMT: dramatically block this transition
[10]
  clinical outcome / toxicity: failed clinical trials due to liver toxicity
MCF7-Slug+Sox9
  Slug+Sox9-induced EMT: blocked Slug+Sox9-induced EMT

## Pembrolizumab: immune checkpoint monotherapy in Keynote 012 and Keynote 086 studies
Metastatic TNBC; Keynote 012, phase 1, monotherapy
  response rate: 18%
Metastatic TNBC; Keynote 086, phase 2, monotherapy
  response rate: 5%
